Test results published in patent publication US20250144049A1, “METHODS, COMPOSITIONS, AND USES RELATED TO THE TREATMENT AND PREVENTION OF LEIGH SYNDROME” (Stealth BioTherapeutics Inc., priority 2023, published 2025).

How the values were obtained:
[1] = tested on: Healthy (GM08402) fibroblasts; test: RSL3 cytoprotection assay, healthy fibroblasts; format: cell-based, human; details: healthy fibroblasts, FIG. 7
Protocol: (§1) Patient fibroblasts were acquired from Coriell Institute for Medical Research (Camden, NJ, USA). GM03672 is an untransformed fibroblast cell line from a Leigh syndrome patient carrying an unknown mutation. GM08402 is an untransformed fibroblast from an apparently healthy individual. Cells were cultured at 37° C. at 5% CO2 in Eagle's Minimum Essential Medium (MEM, Corning), which was supplemented with Earle's salts and non-essential amino acids, 15% qualified fetal bovine serum, and 1% penicillin/streptomycin ([…]) to yield “Complete MEM.”
(§2) To initiate the RSL3 cytoprotection experiment, Healthy (GM08402) and Leigh syndrome (GM03672) fibroblasts were resuspended in Complete MEM. Cells were seeded at 10,000 cells per well in a clear, tissue cultured-treated, 96-well plate and incubated at 37° C. overnight. Following the incubation, supernatant was manually aspirated, taking care not to disrupt cells. […]. Luminescence units were quantified by GEN5 software on a BioTek SYNERGY neo2 plate reader (LUM filter).
(§3) RSL3 is an inhibitor of the enzyme glutathione peroxidase 4 (GPX4), which decreases lipid peroxides. RSL3 inhibition of GPX4 induces ferroptosis through iron-dependent accumulation of lipid ROS. In this assay, Healthy or Leigh fibroblasts were treated for 4 hours with RSL3 to induce ferroptosis or left untreated. Endogenous ATP levels were measured as an indicator of cellular viability using a commercially available kit (CellTiter-Glo® 2.0 Cell Viability Assay (Promega)).
(§4) […]. […] Briefly, ferroptosis was induced with 1 μM RSL3 in healthy fibroblast cells and 375 nM RSL3 in fibroblasts from a patient with Leigh syndrome.
(§5) A preliminary experiment was performed to determine the effect of RSL3 injury on the fibroblasts of a healthy individual (cell line: GM08402) and the fibroblasts of a patient diagnosed with Leigh syndrome (cell line: GM03672).

[2] = tested on: Leigh syndrome (GM03672) fibroblasts; test: RSL3 cytoprotection assay, Leigh fibroblasts; format: cell-based, human; details: Leigh fibroblasts, FIG. 7
Protocol: as §1, §2, §3, §4, §5

Question: How did the “concentration sufficient for 25-30% killing of cells” value [1] turn out when `COC(=O)c1ccc([C@H]2c3[nH]c4ccccc4c3C[C@H](C(=O)OC)N2C(=O)CCl)cc1` [RSL3, (1S,3R)-Methyl 2-(2-chloroacetyl)-2,3,4,9-tetrahydro-1-[4-(methoxycarbonyl)phenyl]-1H-pyrido[3,4-b]indole-3-carboxylate, reference compound] was run?
Answer: 1 µM

Question: What about the “concentration sufficient for 25-30% killing of cells” value [2] of the same compound?
Answer: 700 nM
